In paper PMC7265341, “Quantifying CDK inhibitor selectivity in live cells” (Nature Communications, 2020):
Where two headings read alike, the source gives them in different places.

How the values were obtained:
[1] = target: CDK1/Cyclin E1 (Homo sapiens, UniProt P06493); test: NanoBRET live-cell target engagement, CDK1-NanoLuc/Cyclin E1 in HEK-293; assay type: binding; details: CDK1/E1
[2] = target: CDK20/Cyclin H (Homo sapiens, UniProt Q8IZL9); test: NanoBRET live-cell target engagement, NanoLuc-CDK20/Cyclin H in HEK-293; assay type: binding; details: CDK20/H, 10µM
[3] = target: CDK3/Cyclin E1 (Homo sapiens, UniProt Q00526); test: NanoBRET live-cell target engagement, CDK3-NanoLuc/Cyclin E1 in HEK-293; assay type: binding
[4] = target: CDK8/Cyclin C (Homo sapiens, UniProt P49336); test: NanoBRET live-cell target engagement, NanoLuc-CDK8/Cyclin C in HEK-293; assay type: binding
[5] = target: CDK14/Cyclin Y (Homo sapiens, UniProt O94921); test: NanoBRET live-cell target engagement, CDK14-NanoLuc/Cyclin Y in HEK-293; assay type: binding; details: CDK14/Y
[6] = target: CDK9/Cyclin K (Homo sapiens, UniProt P50750); test: NanoBRET live-cell target engagement, NanoLuc-CDK9/Cyclin K in HEK-293; assay type: binding; details: CDK9/K, 10µM
[7] = target: CDK18/Cyclin Y (Homo sapiens, UniProt Q07002); test: NanoBRET live-cell target engagement, CDK18-NanoLuc/Cyclin Y in HEK-293; assay type: binding; details: CDK18/Y, 10µM
[8] = target: CDK5/CDK5R1 (Homo sapiens, UniProt Q00535); test: NanoBRET live-cell target engagement, CDK5-NanoLuc/CDK5R1 in HEK-293; assay type: binding; details: CDK5/CDK5R1, 10µM
[9] = target: CDK7 (Homo sapiens, UniProt P50613); test: NanoBRET live-cell target engagement, NanoLuc-CDK7 in HEK-293; assay type: binding; details: CDK7
[10] = target: CDK4/Cyclin D1 (Homo sapiens, UniProt P11802); test: NanoBRET live-cell target engagement, NanoLuc-CDK4/Cyclin D1 in HEK-293; assay type: binding; details: CDK4/D1, 10µM
[11] = target: CDK16/Cyclin Y (Homo sapiens, UniProt Q00536); test: NanoBRET live-cell target engagement, CDK16-NanoLuc/Cyclin Y in HEK-293; assay type: binding; details: CDK16/Y
[12] = target: CDK15/Cyclin Y (Homo sapiens, UniProt Q96Q40); test: NanoBRET live-cell target engagement, NanoLuc-CDK15/Cyclin Y in HEK-293; assay type: binding; details: CDK15/Y, 10µM
[13] = target: CDK10/Cyclin L2 (Homo sapiens, UniProt Q15131); test: NanoBRET live-cell target engagement, CDK10-NanoLuc/Cyclin L2 in HEK-293; details: 10µM
[14] = target: CDK12/Cyclin K (Homo sapiens, UniProt Q9NYV4); test: NanoBRET live-cell target engagement, CDK12-NanoLuc/Cyclin K in HEK-293; assay type: binding; details: CDK12/K, 10µM
[15] = target: CDK2/Cyclin E1 (Homo sapiens, UniProt P24941); test: NanoBRET live-cell target engagement, CDK2-NanoLuc/Cyclin E1 in HEK-293; assay type: binding; details: CDK2/E1
[16] = target: CDK11B/Cyclin L2 (Homo sapiens, UniProt P21127); test: NanoBRET live-cell target engagement, CDK11B-NanoLuc/Cyclin L2 in HEK-293; assay type: binding; details: CDK11b/L2, 10µM
[17] = target: CDK17/Cyclin Y (Homo sapiens, UniProt Q00537); test: NanoBRET live-cell target engagement, CDK17-NanoLuc/Cyclin Y in HEK-293; assay type: binding; details: CDK17/Y, 10µM
[18] = target: CDK19/Cyclin C (Homo sapiens, UniProt Q9BWU1); test: NanoBRET live-cell target engagement, NanoLuc-CDK19/Cyclin C in HEK-293
[19] = target: CDK13/Cyclin K (Homo sapiens, UniProt Q14004); test: NanoBRET live-cell target engagement, CDK13-NanoLuc/Cyclin K in HEK-293; assay type: binding; details: CDK13/K, 10µM
[20] = target: CDK6/Cyclin D1 (Homo sapiens, UniProt Q00534); test: NanoBRET live-cell target engagement, NanoLuc-CDK6/Cyclin D1 in HEK-293; assay type: binding; details: CDK6/D1
[21] = average of replicates, read-out: Inhibition at 10µM (%) Average
[22] = read-out: Inhibition at 10µM (%) Replicate 1
[23] = read-out: Inhibition at 10µM (%) Replicate 2
[24] = n=3 average ± SEM, n=2 average to 2 significant figures, read-out: IC50 (nM) Average*
[25] = read-out: IC50 (nM) Replicate 1
[26] = read-out: IC50 (nM) Replicate 2
[27] = read-out: IC50 (nM) Replicate 3

Chain of CDK4/Cyclin D1 (P11802 whole entry): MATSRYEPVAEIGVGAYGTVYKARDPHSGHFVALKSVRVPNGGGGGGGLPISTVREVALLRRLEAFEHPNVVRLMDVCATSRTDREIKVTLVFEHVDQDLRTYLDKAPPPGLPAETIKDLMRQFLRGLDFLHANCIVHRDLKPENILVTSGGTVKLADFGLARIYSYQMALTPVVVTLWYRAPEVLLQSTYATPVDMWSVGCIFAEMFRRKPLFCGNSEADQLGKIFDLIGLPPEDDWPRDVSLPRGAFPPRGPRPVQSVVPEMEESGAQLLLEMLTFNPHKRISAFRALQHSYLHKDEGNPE
Chain of CDK4/Cyclin D1 (P24385 whole entry partner): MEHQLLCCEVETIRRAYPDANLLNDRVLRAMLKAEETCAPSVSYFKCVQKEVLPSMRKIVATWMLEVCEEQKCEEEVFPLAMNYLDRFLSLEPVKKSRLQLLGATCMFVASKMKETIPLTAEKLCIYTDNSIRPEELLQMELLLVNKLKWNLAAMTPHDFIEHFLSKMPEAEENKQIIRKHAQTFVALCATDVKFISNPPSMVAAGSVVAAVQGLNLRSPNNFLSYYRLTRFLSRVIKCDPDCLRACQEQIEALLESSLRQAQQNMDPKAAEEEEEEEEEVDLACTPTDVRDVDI
Chain of CDK13/Cyclin K (O75909 whole entry): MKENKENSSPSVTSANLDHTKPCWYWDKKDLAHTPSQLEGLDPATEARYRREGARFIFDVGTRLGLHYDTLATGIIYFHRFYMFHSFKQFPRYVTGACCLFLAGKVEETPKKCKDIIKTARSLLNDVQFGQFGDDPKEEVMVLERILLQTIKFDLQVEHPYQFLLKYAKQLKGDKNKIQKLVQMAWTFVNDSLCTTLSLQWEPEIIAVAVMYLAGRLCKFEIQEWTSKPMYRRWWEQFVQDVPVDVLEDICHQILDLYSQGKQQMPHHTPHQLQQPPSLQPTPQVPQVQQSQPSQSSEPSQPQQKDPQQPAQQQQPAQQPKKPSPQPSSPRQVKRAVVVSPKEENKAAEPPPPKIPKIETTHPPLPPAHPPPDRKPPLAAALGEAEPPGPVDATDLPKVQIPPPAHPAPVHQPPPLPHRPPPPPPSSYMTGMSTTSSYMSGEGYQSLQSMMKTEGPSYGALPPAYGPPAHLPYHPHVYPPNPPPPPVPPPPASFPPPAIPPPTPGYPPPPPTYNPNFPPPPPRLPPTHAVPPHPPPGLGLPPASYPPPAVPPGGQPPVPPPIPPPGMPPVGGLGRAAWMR
Chain of CDK13/Cyclin K (Q14004 other isoform, or with tags, fused parts or gaps): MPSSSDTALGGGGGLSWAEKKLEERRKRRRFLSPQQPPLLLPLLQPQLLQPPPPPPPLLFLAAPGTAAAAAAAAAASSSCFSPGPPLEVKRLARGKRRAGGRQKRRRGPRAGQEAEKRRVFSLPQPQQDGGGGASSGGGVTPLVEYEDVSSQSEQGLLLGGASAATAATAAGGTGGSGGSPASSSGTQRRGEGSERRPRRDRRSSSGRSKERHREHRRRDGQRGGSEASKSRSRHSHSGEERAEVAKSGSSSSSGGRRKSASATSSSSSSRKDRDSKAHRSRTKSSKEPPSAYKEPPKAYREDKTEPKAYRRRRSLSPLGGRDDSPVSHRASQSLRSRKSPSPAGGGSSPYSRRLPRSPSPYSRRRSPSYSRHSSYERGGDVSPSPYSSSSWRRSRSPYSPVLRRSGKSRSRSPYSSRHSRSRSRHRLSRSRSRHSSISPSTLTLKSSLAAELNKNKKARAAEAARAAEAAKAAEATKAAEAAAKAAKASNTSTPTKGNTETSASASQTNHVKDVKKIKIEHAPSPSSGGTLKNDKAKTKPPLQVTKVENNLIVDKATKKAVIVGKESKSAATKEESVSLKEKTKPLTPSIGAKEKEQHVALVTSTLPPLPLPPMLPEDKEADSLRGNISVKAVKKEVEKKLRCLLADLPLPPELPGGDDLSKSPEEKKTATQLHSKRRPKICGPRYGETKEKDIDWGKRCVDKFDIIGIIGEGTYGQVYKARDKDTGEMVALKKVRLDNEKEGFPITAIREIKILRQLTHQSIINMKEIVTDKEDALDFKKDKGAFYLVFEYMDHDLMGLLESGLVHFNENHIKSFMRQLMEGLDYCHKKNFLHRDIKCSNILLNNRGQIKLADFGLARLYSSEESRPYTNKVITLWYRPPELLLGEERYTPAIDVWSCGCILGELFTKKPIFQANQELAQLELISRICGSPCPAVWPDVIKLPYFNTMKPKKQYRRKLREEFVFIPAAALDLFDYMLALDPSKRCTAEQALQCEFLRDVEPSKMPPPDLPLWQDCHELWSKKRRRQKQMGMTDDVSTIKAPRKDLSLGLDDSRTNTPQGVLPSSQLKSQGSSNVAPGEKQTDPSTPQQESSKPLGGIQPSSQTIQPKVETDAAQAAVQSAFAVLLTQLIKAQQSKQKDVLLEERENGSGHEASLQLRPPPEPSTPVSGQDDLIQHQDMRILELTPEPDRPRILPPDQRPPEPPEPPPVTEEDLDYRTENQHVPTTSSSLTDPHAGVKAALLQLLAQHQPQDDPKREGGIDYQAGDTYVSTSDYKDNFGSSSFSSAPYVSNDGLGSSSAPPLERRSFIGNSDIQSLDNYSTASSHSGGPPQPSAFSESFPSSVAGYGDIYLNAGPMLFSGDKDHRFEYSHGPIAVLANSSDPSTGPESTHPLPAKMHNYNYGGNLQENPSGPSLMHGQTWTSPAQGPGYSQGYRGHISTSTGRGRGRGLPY
Chain of CDK5/CDK5R1 (Q00535 whole entry): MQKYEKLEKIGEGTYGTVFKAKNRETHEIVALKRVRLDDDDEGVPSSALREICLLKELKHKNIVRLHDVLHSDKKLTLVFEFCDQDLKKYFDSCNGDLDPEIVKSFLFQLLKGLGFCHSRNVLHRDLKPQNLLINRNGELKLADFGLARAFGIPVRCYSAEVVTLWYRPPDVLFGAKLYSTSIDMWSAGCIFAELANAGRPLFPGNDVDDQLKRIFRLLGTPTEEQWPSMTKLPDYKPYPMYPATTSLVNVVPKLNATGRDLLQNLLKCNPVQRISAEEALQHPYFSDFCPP
Chain of CDK5/CDK5R1 (Q15078 whole entry partner): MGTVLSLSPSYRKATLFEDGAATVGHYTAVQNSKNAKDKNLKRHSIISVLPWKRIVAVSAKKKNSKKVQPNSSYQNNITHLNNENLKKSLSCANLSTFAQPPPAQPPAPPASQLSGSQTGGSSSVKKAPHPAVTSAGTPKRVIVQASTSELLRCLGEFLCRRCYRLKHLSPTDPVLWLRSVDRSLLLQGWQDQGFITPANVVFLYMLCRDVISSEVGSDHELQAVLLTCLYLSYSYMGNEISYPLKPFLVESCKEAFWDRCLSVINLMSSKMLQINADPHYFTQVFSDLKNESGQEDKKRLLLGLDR
Chain of CDK14/Cyclin Y (O94921 whole entry): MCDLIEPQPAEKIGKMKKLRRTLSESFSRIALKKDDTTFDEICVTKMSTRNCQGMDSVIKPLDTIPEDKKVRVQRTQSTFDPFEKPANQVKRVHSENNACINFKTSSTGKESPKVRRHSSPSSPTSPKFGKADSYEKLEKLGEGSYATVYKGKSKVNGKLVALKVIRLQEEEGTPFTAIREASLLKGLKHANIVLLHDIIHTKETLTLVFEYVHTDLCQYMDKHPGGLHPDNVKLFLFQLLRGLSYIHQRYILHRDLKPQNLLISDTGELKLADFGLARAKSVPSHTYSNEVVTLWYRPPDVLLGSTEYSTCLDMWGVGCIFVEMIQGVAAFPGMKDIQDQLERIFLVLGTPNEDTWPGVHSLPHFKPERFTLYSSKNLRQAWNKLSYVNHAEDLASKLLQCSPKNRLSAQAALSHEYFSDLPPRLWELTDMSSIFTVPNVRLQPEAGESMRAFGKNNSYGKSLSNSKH
Chain of CDK14/Cyclin Y (Q8ND76 whole entry partner): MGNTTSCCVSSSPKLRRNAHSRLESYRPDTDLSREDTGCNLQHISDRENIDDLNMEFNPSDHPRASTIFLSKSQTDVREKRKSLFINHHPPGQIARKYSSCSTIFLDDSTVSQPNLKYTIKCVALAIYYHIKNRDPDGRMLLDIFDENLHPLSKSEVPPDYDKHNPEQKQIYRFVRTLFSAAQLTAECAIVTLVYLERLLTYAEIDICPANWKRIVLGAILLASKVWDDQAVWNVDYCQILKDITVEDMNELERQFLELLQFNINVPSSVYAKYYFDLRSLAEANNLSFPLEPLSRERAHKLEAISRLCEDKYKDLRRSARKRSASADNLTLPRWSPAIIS
Chain of CDK10/Cyclin L2 (Q15131 whole entry): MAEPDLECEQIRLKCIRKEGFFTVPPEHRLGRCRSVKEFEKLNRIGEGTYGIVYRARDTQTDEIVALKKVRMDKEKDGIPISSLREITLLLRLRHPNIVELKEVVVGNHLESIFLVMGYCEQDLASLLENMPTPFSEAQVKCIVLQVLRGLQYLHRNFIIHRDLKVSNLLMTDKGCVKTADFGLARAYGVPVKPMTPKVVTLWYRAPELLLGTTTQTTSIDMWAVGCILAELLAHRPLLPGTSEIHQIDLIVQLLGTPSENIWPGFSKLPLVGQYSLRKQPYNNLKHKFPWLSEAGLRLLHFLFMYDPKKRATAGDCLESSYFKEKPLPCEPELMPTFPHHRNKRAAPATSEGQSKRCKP
Chain of CDK15/Cyclin Y (Q96Q40 whole entry): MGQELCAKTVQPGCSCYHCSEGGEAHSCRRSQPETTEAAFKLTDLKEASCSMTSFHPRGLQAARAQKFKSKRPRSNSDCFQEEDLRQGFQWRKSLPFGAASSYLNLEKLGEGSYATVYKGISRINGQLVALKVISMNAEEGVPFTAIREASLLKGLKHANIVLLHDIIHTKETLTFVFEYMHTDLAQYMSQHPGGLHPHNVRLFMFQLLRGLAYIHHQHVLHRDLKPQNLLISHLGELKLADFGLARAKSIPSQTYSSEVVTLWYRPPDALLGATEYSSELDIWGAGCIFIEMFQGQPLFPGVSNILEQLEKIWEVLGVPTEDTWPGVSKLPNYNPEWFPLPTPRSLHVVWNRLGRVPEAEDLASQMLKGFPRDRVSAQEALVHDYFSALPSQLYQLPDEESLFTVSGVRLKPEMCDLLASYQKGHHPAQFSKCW
Chain of CDK15/Cyclin Y (Q8ND76 whole entry partner): as the sequence (Q8ND76 whole entry partner) above

CCCCOc1c(C(=O)c2c(F)cc(C)cc2F)c[nH]c2nncc1-2 [BMS-265246]
inhibition at 10 µM [1, 21]: 44.4% | inhibition at 10 µM [1, 22]: 65.6% | inhibition at 10 µM [1, 23]: 23.1% | IC50 [1, 24]: 50 ± 20 nM | IC50 [1, 25]: 95 nM | IC50 [1, 26]: 39 nM | IC50 [1, 27]: 11 nM | inhibition at 10 µM [2, 22]: 14.5% | inhibition at 10 µM [2, 23]: -14.1% | inhibition at 10 µM ([3]; CDK3/E1, average of replicates, read-out: Inhibition at 10µM (%) Average): 74% | inhibition at 10 µM ([3]; CDK3/E1, read-out: Inhibition at 10µM (%) Replicate 1): 81.9% | inhibition at 10 µM ([3]; CDK3/E1, read-out: Inhibition at 10µM (%) Replicate 2): 66% | IC50 ([3]; CDK3/E1, read-out: IC50 (nM) Replicate 1): 6.5 nM | IC50 ([3]; CDK3/E1, read-out: IC50 (nM) Replicate 2): 14 nM | IC50 ([3]; CDK3/E1, read-out: IC50 (nM) Replicate 3): 9.2 nM | IC50 ([3]; live HEK-293, 2 h, mean ± S.E.M. (n=3) or mean (n=2), read-out: IC50 for CDK/cyclin complexes, CDK3/E1): 10 nM | inhibition at 10 µM ([4]; CDK8/C, average of replicates, read-out: Inhibition at 10µM (%) Average): 95.1% | inhibition at 10 µM ([4]; CDK8/C, read-out: Inhibition at 10µM (%) Replicate 1): 97.6% | inhibition at 10 µM ([4]; CDK8/C, read-out: Inhibition at 10µM (%) Replicate 2): 92.5% | IC50 ([4]; CDK8/C, read-out: IC50 (nM) Replicate 1): 1.2 nM | IC50 ([4]; CDK8/C, read-out: IC50 (nM) Replicate 2): 0.45 nM | IC50 ([4]; CDK8/C, read-out: IC50 (nM) Replicate 3): 0.5 nM | IC50 ([4]; live HEK-293, 2 h, mean ± S.E.M. (n=3) or mean (n=2), read-out: IC50 for CDK/cyclin complexes, CDK8/C): 0.7 nM | Kd ([4]; live HEK-293, read-out: Kd-apparent, CDK8 live-cell occupancy): < 2 nM | inhibition at 10 µM [5, 21]: 43.5% | inhibition at 10 µM [5, 22]: 68.1% | inhibition at 10 µM [5, 23]: 18.8% | IC50 [5, 24]: 200 ± 200 nM | IC50 [5, 25]: 10 nM | IC50 [5, 26]: 100 nM | IC50 [5, 27]: 570 nM | inhibition at 10 µM [6, 21]: 26.1% | inhibition at 10 µM [6, 22]: 31% | inhibition at 10 µM [6, 23]: 21.3% | inhibition at 10 µM [7, 21]: 89.2% | inhibition at 10 µM [7, 22]: 86.5% | inhibition at 10 µM [7, 23]: 92% | inhibition at 10 µM [8, 21]: 35.1% | inhibition at 10 µM [8, 22]: 36.3% | inhibition at 10 µM [8, 23]: 33.9% | inhibition at 10 µM [9, 21]: 43.7% | inhibition at 10 µM [9, 22]: 21% | inhibition at 10 µM [9, 23]: 66.3% | IC50 [9, 24]: 180 ± 10 nM | IC50 [9, 25]: 160 nM | IC50 [9, 26]: 170 nM | IC50 [9, 27]: 197 nM | inhibition at 10 µM [10, 21]: 49.1% | inhibition at 10 µM [10, 22]: 49% | inhibition at 10 µM [10, 23]: 49.3% | inhibition at 10 µM [11, 22]: 70.8% | inhibition at 10 µM [11, 23]: 76.5% | IC50 [11, 24]: 50 ± 20 nM | IC50 [11, 25]: 5.7 nM | IC50 [11, 26]: 63 nM | IC50 [11, 27]: 79 nM | inhibition at 10 µM [12, 21]: 35.1% | inhibition at 10 µM [12, 22]: 51.3% | inhibition at 10 µM [12, 23]: 19% | inhibition at 10 µM ([13]; read-out: Inhibition at 10µM (%) Average, CDK10/L2, average of replicates): 11.1% | inhibition at 10 µM ([13]; read-out: Inhibition at 10µM (%) Replicate 1, CDK10/L2): 5.3% | inhibition at 10 µM ([13]; read-out: Inhibition at 10µM (%) Replicate 2, CDK10/L2): 17% | inhibition at 10 µM [14, 21]: 5.2% | inhibition at 10 µM [14, 22]: 12.3% | inhibition at 10 µM [14, 23]: -1.9% | inhibition at 10 µM [15, 21]: 80.1% | inhibition at 10 µM [15, 22]: 77.4% | inhibition at 10 µM [15, 23]: 82.8% | IC50 [15, 24]: 22 ± 8 nM | IC50 [15, 25]: 29 nM | IC50 [15, 26]: 31 nM | IC50 [15, 27]: 6.6 nM | inhibition at 10 µM [16, 21]: 11.8% | inhibition at 10 µM [16, 22]: 9.8% | inhibition at 10 µM [16, 23]: 13.8% | inhibition at 10 µM [17, 21]: 75.2% | inhibition at 10 µM [17, 22]: 71.1% | inhibition at 10 µM [17, 23]: 79.2% | Kd [18]: < 2 nM | IC50 ([18]; IC50 (nM) Average*, CDK19/Y, n=3 average ± SEM, n=2 average to 2 significant figures): 1.47 ± 0.09 nM | IC50 ([18]; IC50 (nM) Replicate 2, CDK19/C): 1.6 nM | IC50 ([18]; IC50 (nM) Replicate 3, CDK19/C): 1.3 nM | IC50 ([18]; IC50 for CDK/cyclin complexes, CDK19/C, live HEK-293, 2 h, mean ± S.E.M. (n=3) or mean (n=2)): 1.5 nM | inhibition at 10 µM ([18]; read-out: Inhibition at 10µM (%) Average, CDK19/C, average of replicates): 95.1% | inhibition at 10 µM ([18]; read-out: Inhibition at 10µM (%) Replicate 1, CDK19/C): 98.1% | inhibition at 10 µM ([18]; read-out: Inhibition at 10µM (%) Replicate 2, CDK19/C): 92.2% | inhibition at 10 µM [19, 21]: 12.6% | inhibition at 10 µM [19, 22]: 10.5% | inhibition at 10 µM [19, 23]: 14.7% | inhibition at 10 µM [20, 21]: 68% | inhibition at 10 µM [20, 22]: 64.1% | inhibition at 10 µM [20, 23]: 71.8% | IC50 [20, 24]: 100 ± 30 nM | IC50 [20, 25]: 63 nM | IC50 [20, 26]: 70 nM | IC50 [20, 27]: 152 nM
